The values below come from PubChem BioAssay AID330 (DTP/NCI, 2004).

The test system of the assay is P388 leukemia ip, CD2F1 mice, survival T/C. Briefly: NCI In Vivo Anticancer Drug Screen. Data for tumor model P388 Leukemia (intraperitoneal) in CD2F1 (CDF1) mice. As to conditions: endpoint: median survival time, higher = longer survival. The method in brief:
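Mice carrying the transplanted tumor received test compound or vehicle. Survival was recorded in each group, and the value is the treated-group measurement divided by that of the vehicle-treated control group.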

The mark [1] stands for this setting: dose: 60.0 mg/kg/injection, schedule: Q01DX005 (ip), vehicle: Klucel (hydroxypropylcellulose) (HPC).
[2] abbreviates: dose: 120.0 mg/kg/injection, schedule: Q01DX005 (ip), vehicle: Klucel (hydroxypropylcellulose) (HPC).
The mark [3] stands for this setting: dose: 50.0 mg/kg/injection, schedule: Q01DX005 (ip), vehicle: Klucel (hydroxypropylcellulose) (HPC).
[4] abbreviates: dose: 100.0 mg/kg/injection, schedule: Q01DX005 (ip), vehicle: Klucel (hydroxypropylcellulose) (HPC).
Where [5] appears, read: dose: 200.0 mg/kg/injection, schedule: Q01DX005 (ip), vehicle: Klucel (hydroxypropylcellulose) (HPC).
Where [6] appears, read: dose: 50.0 mg/kg/injection, schedule: Q01DX009 (ip), vehicle: saline with Tween-80.
Where [7] appears, read: dose: 100.0 mg/kg/injection, schedule: Q01DX009 (ip), vehicle: saline with Tween-80.
Where [8] appears, read: dose: 200.0 mg/kg/injection, schedule: Q01DX009 (ip), vehicle: saline with Tween-80.
The mark [9] stands for this setting: dose: 100.0 mg/kg/injection, schedule: Q04DX002 (ip), vehicle: saline.
The mark [10] stands for this setting: dose: 200.0 mg/kg/injection, schedule: Q04DX002 (ip), vehicle: saline.
Where [11] appears, read: dose: 400.0 mg/kg/injection, schedule: Q04DX002 (ip), vehicle: saline.
[12] abbreviates: dose: 12.5 mg/kg/injection, schedule: Q01DX009 (ip), vehicle: saline.
Setting [13] is: dose: 25.0 mg/kg/injection, schedule: Q01DX009 (ip), vehicle: saline.
Setting [14] is: dose: 50.0 mg/kg/injection, schedule: Q01DX009 (ip), vehicle: saline.

Values joined by “and” are separate entries in the source; they are usually repeats but may differ in a detail not shown here. Equal values may be shown once. Inconclusive results and toxic doses are left out.

On to `CC(C(=O)O)N1CN(/N=C/c2ccc(Cl)cc2Cl)C(N)=NC1(O)CCl` (stereo not drawn), for which the T/C reads like this: (dose: 60.0 mg/kg/injection, schedule: Q01DX005 (ip), vehicle: saline) 101 % of control; (dose: 120.0 mg/kg/injection, schedule: Q01DX005 (ip), vehicle: saline) 101 % of control; (dose: 240.0 mg/kg/injection, schedule: Q01DX005 (ip), vehicle: saline) 115 % of control.
As to `O=P(O/C(=C\c1ccccc1)c1ccccc1)(c1ccccc1)c1ccccc1`, the T/C is 91 % of control under setting [1]; 90 % of control under setting [2]; 90 % of control (dose: 240.0 mg/kg/injection, schedule: Q01DX005 (ip), vehicle: Klucel (hydroxypropylcellulose) (HPC)).
`CC1=C(C)C(=O)C(C(C)(C)CC(=O)N(C)/N=N/c2nc[nH]c2C(N)=O)=C(C)C1=O`: the T/C was 155 % of control (dose: 100.0 mg/kg/injection, schedule: Q01DX005 (ip), vehicle: saline with Tween-80) and 174 % of control (dose: 200.0 mg/kg/injection, schedule: Q01DX005 (ip), vehicle: saline with Tween-80).
In the case of `CCC1c2ccc3cc(OC)ccc3c2CCC1(C)C(=O)O` (stereo not drawn), the T/C is 100 % of control under setting [3], 98 % of control under setting [4] and 100 % of control under setting [5].
Regarding `C(=NC12CC3CC(CC(C3)C1)C2)C12CC3CC(CC(C3)C1)C2`, the T/C is 99 % of control under setting [6], 102 % of control under setting [7] and 96 % of control under setting [8].
As to `CC(C)(C)c1cc(NC(=O)C(F)(F)F)c(Cl)c(C(C)(C)C)c1O`, the T/C by setting is: under setting [3], 109 % of control; under setting [4], 100 % of control; under setting [5], 108 % of control.
On to `N=c1nc(-c2ccccc2)c(-c2ccccc2)nn1CC(=O)c1ccc(Br)cc1`, for which the T/C reads like this: under setting [3], 111 % of control; under setting [4], 94 % of control.
Take `CCOC(=O)C1CCc2ccc(OC)c(OC)c2C1` (stereo not drawn): the T/C was 100 % of control (dose: 12.5 mg/kg/injection, schedule: Q01DX009 (ip), vehicle: other); 97 % of control (dose: 25.0 mg/kg/injection, schedule: Q01DX009 (ip), vehicle: other); 105 % of control (dose: 50.0 mg/kg/injection, schedule: Q01DX009 (ip), vehicle: other); 100 % of control (dose: 100.0 mg/kg/injection, schedule: Q01DX009 (ip), vehicle: other); 110 % of control (dose: 200.0 mg/kg/injection, schedule: Q01DX009 (ip), vehicle: other).
For `CC(C)CC(NC(c1ccccc1)(c1ccccc1)c1ccccc1)C(=O)O` (stereo not drawn), the T/C was 103 % of control under setting [1] and 106 % of control under setting [2].
Consider `O=C1C(n2ccc(=O)[nH]c2=O)CCN1CCCl` (stereo not drawn), for which the T/C by setting is: under setting [4], 108 % of control; under setting [5], 108 % of control.
In the case of `O=C(CCl)Nc1c(Br)cc(F)cc1Br`, the T/C was 88 % of control under setting [6], 99 % of control under setting [7] and 104 % of control under setting [8].
Turning to `CC(C)CCOCCOCCCN1C(=O)C2C3C=CC(C3)C2C1=O` (stereo not drawn), the T/C by setting is: under setting [3], 99 % of control; under setting [4], 100 % of control.
Take `CC1(C)CC(=O)C2OC21` (stereo not drawn): the T/C under setting [9] is 107 % of control and 95 % of control; the T/C under setting [10] is 101 % of control; the T/C under setting [11] was 106 % of control and 107 % of control.
With `CC[NH-].CC[NH-].[Cl][Pt+2][Cl]`, the T/C reads like this: (dose: 3.12 mg/kg/injection, schedule: Q01DX009 (ip), vehicle: saline) 150 % of control; (dose: 3.12 mg/kg/injection, schedule: Q01DX009 (ip), vehicle: suspension in saline) 116 % of control; (dose: 6.25 mg/kg/injection, schedule: Q01DX009 (ip), vehicle: saline) 162 % of control; under setting [12], 159 % of control; (dose: 12.5 mg/kg/injection, schedule: Q01DX009 (ip), vehicle: suspension in saline) 97 % of control.
For the compound `COc1cccc2c1C(=O)c1c(O)c3c(c(O)c1C2=O)C[C@@](O)(C(=O)CO)C[C@@H]3OC1CC(N)CC(C)O1` (stereo partly drawn), the T/C is, setting by setting: (dose: 0.1 mg/kg/injection, schedule: Q01DX009 (ip), vehicle: water) 157 % of control; (dose: 0.2 mg/kg/injection, schedule: Q01DX009 (ip), vehicle: water) 154 % of control and 157 % of control; (dose: 0.32 mg/kg/injection, schedule: Q01DX009 (ip), vehicle: saline) 166 % of control; (dose: 0.39 mg/kg/injection, schedule: Q01DX009 (ip), vehicle: water) 173 % of control and 186 % of control; (dose: 0.54 mg/kg/injection, schedule: Q01DX009 (ip), vehicle: saline) 191 % of control; (dose: 0.78 mg/kg/injection, schedule: Q01DX009 (ip), vehicle: water) 185 % of control and 280 % of control. For the same compound, the T/C (dose: 0.9 mg/kg/injection, schedule: Q01DX009 (ip), vehicle: saline) is 314 % of control; the T/C (dose: 1.5 mg/kg/injection, schedule: Q01DX009 (ip), vehicle: saline) was 201 % of control; the T/C (dose: 1.56 mg/kg/injection, schedule: Q01DX009 (ip), vehicle: water) was 157 % of control and 226 % of control and 89 % of control; the T/C (dose: 1.8 mg/kg/injection, schedule: Q04DX003 (ip), vehicle: saline) was 200 % of control; the T/C (dose: 3.0 mg/kg/injection, schedule: Q04DX003 (ip), vehicle: saline) was 154 % of control and 275 % of control; the T/C (dose: 3.13 mg/kg/injection, schedule: Q04DX003 (ip), vehicle: water) is 158 % of control. Where the note is “dose: 12.5 mg/kg/injection, schedule: Q04DX003 (ip), vehicle: water”, the T/C is 103 % of control.
For the compound `COc1nc(NC(C)C)nc(NC(C)C)n1`, the T/C is 87 % of control (dose: 50.0 mg/kg/injection, schedule: Q04DX003 (ip), vehicle: saline with Tween-80); 95 % of control (dose: 100.0 mg/kg/injection, schedule: Q04DX003 (ip), vehicle: saline with Tween-80); 104 % of control (dose: 200.0 mg/kg/injection, schedule: Q04DX003 (ip), vehicle: saline with Tween-80).
On to `CCCCCCCCS(=O)(=O)NC`, for which the T/C is 117 % of control under setting [13]; 102 % of control under setting [14]; 102 % of control (dose: 200.0 mg/kg/injection, schedule: Q01DX009 (ip), vehicle: saline).
As for `CC1(c2ccccc2)CCCC(C#N)C1=N` (stereo not drawn), the T/C was 106 % of control (dose: 12.5 mg/kg/injection, schedule: Q01DX001 (ip), vehicle: Klucel (hydroxypropylcellulose) (HPC)); 100 % of control (dose: 25.0 mg/kg/injection, schedule: Q01DX001 (ip), vehicle: Klucel (hydroxypropylcellulose) (HPC)); 103 % of control (dose: 50.0 mg/kg/injection, schedule: Q01DX001 (ip), vehicle: Klucel (hydroxypropylcellulose) (HPC)).
Take `O=c1[nH]cc(Br)c2sccc12`: the T/C reads like this: (dose: 25.0 mg/kg/injection, schedule: Q01DX009 (ip), vehicle: saline with Tween-80) 109 % of control; under setting [6], 109 % of control; under setting [7], 109 % of control.
Consider `O=C(CCl)Nc1nc(NC(=O)CCl)nc(NC(=O)CCl)n1`, for which the T/C under setting [9] was 96 % of control, the T/C under setting [10] was 96 % of control and the T/C under setting [11] was 95 % of control.
Take `Nc1nc[nH]c1-c1noc(=O)[nH]1`: the T/C is 102 % of control under setting [12]; 108 % of control under setting [13]; 104 % of control and 112 % of control under setting [14]; 110 % of control (dose: 100.0 mg/kg/injection, schedule: Q01DX009 (ip), vehicle: saline).
For the compound `CN(C)c1nc(N(C)C)oc(=[N+](C)C)n1`, the T/C runs as follows: (dose: 6.25 mg/kg/injection, schedule: Q01DX005 (ip), vehicle: saline) 106 % of control; (dose: 12.5 mg/kg/injection, schedule: Q01DX005 (ip), vehicle: saline) 103 % of control; (dose: 25.0 mg/kg/injection, schedule: Q01DX005 (ip), vehicle: saline) 113 % of control.
Consider `CC(=O)Nc1cc(C)cc(C(=O)O)c1C`, for which the T/C is 97 % of control under setting [6]; 100 % of control under setting [7]; 98 % of control under setting [8]; 98 % of control (dose: 400.0 mg/kg/injection, schedule: Q01DX009 (ip), vehicle: saline with Tween-80).
In the case of `C=CC[S+]1CCCCC1C=C` (stereo not drawn), the T/C (dose: 100.0 mg/kg/injection, schedule: Q01DX001 (ip), vehicle: saline with Tween-80) was 94 % of control; the T/C (dose: 200.0 mg/kg/injection, schedule: Q01DX001 (ip), vehicle: saline with Tween-80) is 95 % of control; the T/C (dose: 400.0 mg/kg/injection, schedule: Q01DX001 (ip), vehicle: saline with Tween-80) is 95 % of control.
